Experimental data: patent US6355799B1, “Substituted benzene compounds, process for their preparation, and herbicidal and defoliant compositions containing them” (ISK Americas Incorporated, priority 1997, dated 2002)

Assays:
Type in all cases: in vivo
[1] = test system: redroot pigweed (Amaranthus retroflexus, AMARE); test: Pre-emerge test, greenhouse herbicide activity screening; details: pre-emerge, phytotoxicity rating 0-100 at 14 days after application
In short: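 Plants grown in 10 cm pots of sandy loam mix received acetone-dissolved compounds through a moving flat-fan nozzle. Doses ranged from 15 to 1000 g ai/ha. Pre-emerge pots were seeded one day earlier, post-emerge pots 8–21 days earlier. Fourteen days on, each pot was graded 0–100 for damage.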

[2] = test system: barnyardgrass (Echinochloa crus-galli, ECHCG); test: as above; details: pre-emerge, phytotoxicity rating 0-100 at 14 days after application
In short: (§1)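 Fourteen days after spraying, crop and weed injury was graded visually from 0, no effect, to 100, every plant dead. Test substances were dissolved in acetone and applied at 15–1000 g ai/ha with a flat-fan nozzle. Application was either pre-emergence, one day after sowing, or post-emergence at the 2–3 leaf stage.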

[3] = test system: green foxtail (Setaria viridis, SETVI); test: as above; details: pre-emerge, phytotoxicity rating 0-100 at 14 days after application
In short: as §1

[4] = test system: ivyleaf morningglory (Ipomoea hederacea, IPOHE); test: as above; details: pre-emerge, phytotoxicity rating 0-100 at 14 days after application
In short: as §1

[5] = test system: lambsquarters (Chenopodium album, CHEAL); test: as above; details: pre-emerge, phytotoxicity rating 0-100 at 14 days after application
In short: as §1

[6] = test system: large crabgrass (Digitaria sanguinalis, DIGSA); test: as above; details: pre-emerge, phytotoxicity rating 0-100 at 14 days after application
In short: as §1

[7] = test system: sicklepod (Cassia obtusifolia, CASOB); test: as above; details: pre-emerge, phytotoxicity rating 0-100 at 14 days after application
In short: as §1

[8] = test system: velvetleaf (Abutilon theophrasti, ABUTH); test: as above; details: pre-emerge, phytotoxicity rating 0-100 at 14 days after application
In short: as §1

[9] = test system: field corn (Zea mays L., var. Dekalb 535, CORN); test: Pre-emerge test, crop safety; details: crop damage, pre-emerge, phytotoxicity rating 0-100 at 14 days after application
In short: (§2)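 Compounds in acetone were track-sprayed at 187 l/ha, 15–1000 g ai/ha, onto sandy loam pots. Pre-emerge seeds were sown one day before spraying, with surface watering afterwards. Post-emerge plants were at the 2–3 leaf stage and sprayed with 0.25% v/v non-ionic surfactant. Injury was rated 0–100 at 14 days.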

[10] = test system: upland rice (Oryza sp., var. Tebonnet, RICE); test: Pre-emerge test, crop safety; details: crop damage, pre-emerge, phytotoxicity rating 0-100 at 14 days after application
In short: as §2

[11] = test system: barnyardgrass (Echinochloa crus-galli, ECHCG); test: Post-emerge test, greenhouse herbicide activity screening; details: post-emerge, phytotoxicity rating 0-100 at 14 days after application
In short: (§3)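 Each test used a mechanized track sprayer delivering 187 l/ha of acetone solution at 15–1000 g ai/ha. Post-emerge foliage at 2–3 leaves was treated with added 0.25% v/v non-ionic surfactant and bottom-watered only. Injury was assessed on day 14, where 100 means total kill.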

[12] = test system: green foxtail (Setaria viridis, SETVI); test: as above; details: post-emerge, phytotoxicity rating 0-100 at 14 days after application
In short: as §3

[13] = test system: ivyleaf morningglory (Ipomoea hederacea, IPOHE); test: as above; details: post-emerge, phytotoxicity rating 0-100 at 14 days after application
In short: as §3

[14] = test system: johnsongrass (Sorghum halepense, SORHA); test: as above; details: post-emerge, phytotoxicity rating 0-100 at 14 days after application
In short: as §3

[15] = test system: lambsquarters (Chenopodium album, CHEAL); test: as above; details: post-emerge, phytotoxicity rating 0-100 at 14 days after application
In short: as §3

[16] = test system: large crabgrass (Digitaria sanguinalis, DIGSA); test: as above; details: post-emerge, phytotoxicity rating 0-100 at 14 days after application
In short: as §3

[17] = test system: redroot pigweed (Amaranthus retroflexus, AMARE); test: as above; details: post-emerge, phytotoxicity rating 0-100 at 14 days after application
In short: as §3

[18] = test system: sicklepod (Cassia obtusifolia, CASOB); test: as above; details: post-emerge, phytotoxicity rating 0-100 at 14 days after application
In short: as §3

[19] = test system: velvetleaf (Abutilon theophrasti, ABUTH); test: as above; details: post-emerge, phytotoxicity rating 0-100 at 14 days after application
In short: as §3

[20] = test system: field corn (Zea mays L., var. Dekalb 535, CORN); test: Post-emerge test, crop safety; details: post-emerge, crop damage rating 0-100 at 14 days after application
In short: as §1

[21] = test system: upland rice (Oryza sp., var. Tebonnet, RICE); test: Post-emerge test, crop safety; details: post-emerge, crop damage rating 0-100 at 14 days after application
In short: as §1

COc1cccc(COC(=O)Nc2c(C)c(Cl)cc(F)c2-n2c(=O)cc(C(F)(F)F)n(C)c2=O)c1 [4-65]
Pre-emerge Herbicidal Activity AMARE ([1]; rate 63 g ai/ha): 100
Pre-emerge Herbicidal Activity AMARE ([1]; rate 250 g ai/ha): 100
Pre-emerge Herbicidal Activity ECHCG ([2]; rate 63 g ai/ha): 80
Pre-emerge Herbicidal Activity ECHCG ([2]; rate 250 g ai/ha): 90
Pre-emerge Herbicidal Activity SETVI ([3]; rate 63 g ai/ha): 100
Pre-emerge Herbicidal Activity SETVI ([3]; rate 250 g ai/ha): 100
Pre-emerge Herbicidal Activity IPOHE ([4]; rate 63 g ai/ha): 90
Pre-emerge Herbicidal Activity IPOHE ([4]; rate 250 g ai/ha): 100
Pre-emerge Herbicidal Activity CHEAL ([5]; rate 63 g ai/ha): 100
Pre-emerge Herbicidal Activity CHEAL ([5]; rate 250 g ai/ha): 100
Pre-emerge Herbicidal Activity DIGSA ([6]; rate 63 g ai/ha): 100
Pre-emerge Herbicidal Activity DIGSA ([6]; rate 250 g ai/ha): 100
Pre-emerge Herbicidal Activity CASOB ([7]; rate 63 g ai/ha): 80
Pre-emerge Herbicidal Activity CASOB ([7]; rate 250 g ai/ha): 90
Pre-emerge Herbicidal Activity ABUTH ([8]; rate 63 g ai/ha): 100
Pre-emerge Herbicidal Activity ABUTH ([8]; rate 250 g ai/ha): 100
Pre-emerge Herbicidal Activity CORN ([9]; rate 63 g ai/ha): 55
Pre-emerge Herbicidal Activity CORN ([9]; rate 250 g ai/ha): 75
Pre-emerge Herbicidal Activity RICE ([10]; rate 63 g ai/ha): 65
Pre-emerge Herbicidal Activity RICE ([10]; rate 250 g ai/ha): 90
Post-emerge Herbicidal Activity ECHCG ([11]; 63 g ai/ha): 60
Post-emerge Herbicidal Activity ECHCG ([11]; 250 g ai/ha): 70
Post-emerge Herbicidal Activity SETVI ([12]; 63 g ai/ha): 100
Post-emerge Herbicidal Activity SETVI ([12]; 250 g ai/ha): 100
Post-emerge Herbicidal Activity IPOHE ([13]; 63 g ai/ha): 100
Post-emerge Herbicidal Activity IPOHE ([13]; 250 g ai/ha): 100
Post-emerge Herbicidal Activity SORHA ([14]; 63 g ai/ha): 70
Post-emerge Herbicidal Activity SORHA ([14]; 250 g ai/ha): 80
Post-emerge Herbicidal Activity CHEAL ([15]; 63 g ai/ha): 100
Post-emerge Herbicidal Activity CHEAL ([15]; 250 g ai/ha): 100
Post-emerge Herbicidal Activity DIGSA ([16]; 63 g ai/ha): 60
Post-emerge Herbicidal Activity DIGSA ([16]; 250 g ai/ha): 80
Post-emerge Herbicidal Activity AMARE ([17]; 63 g ai/ha): 100
Post-emerge Herbicidal Activity AMARE ([17]; 250 g ai/ha): 100
Post-emerge Herbicidal Activity CASOB ([18]; 63 g ai/ha): 100
Post-emerge Herbicidal Activity CASOB ([18]; 250 g ai/ha): 100
Post-emerge Herbicidal Activity ABUTH ([19]; 63 g ai/ha): 100
Post-emerge Herbicidal Activity ABUTH ([19]; 250 g ai/ha): 100
Post-emerge Herbicidal Activity CORN ([20]; 63 g ai/ha): 80
Post-emerge Herbicidal Activity CORN ([20]; 250 g ai/ha): 90
Post-emerge Herbicidal Activity RICE ([21]; 63 g ai/ha): 70
Post-emerge Herbicidal Activity RICE ([21]; 250 g ai/ha): 80

COc1c(Cl)cc(F)c(-n2nc(C)n(C(F)F)c2=O)c1NC(=O)c1ccc(F)cc1F [Compound 6-14]
Pre-emerge Herbicidal Activity AMARE ([1]; rate 63 g ai/ha): 90
Pre-emerge Herbicidal Activity AMARE ([1]; rate 250 g ai/ha): 100
Pre-emerge Herbicidal Activity ECHCG ([2]; rate 63 g ai/ha): 100
Pre-emerge Herbicidal Activity ECHCG ([2]; rate 250 g ai/ha): 100
Pre-emerge Herbicidal Activity SETVI ([3]; rate 63 g ai/ha): 100
Pre-emerge Herbicidal Activity SETVI ([3]; rate 250 g ai/ha): 100
Pre-emerge Herbicidal Activity IPOHE ([4]; rate 63 g ai/ha): 60
Pre-emerge Herbicidal Activity IPOHE ([4]; rate 250 g ai/ha): 100
Pre-emerge Herbicidal Activity CHEAL ([5]; rate 63 g ai/ha): 100
Pre-emerge Herbicidal Activity CHEAL ([5]; rate 250 g ai/ha): 100
Pre-emerge Herbicidal Activity DIGSA ([6]; rate 63 g ai/ha): 100
Pre-emerge Herbicidal Activity DIGSA ([6]; rate 250 g ai/ha): 100
Pre-emerge Herbicidal Activity CASOB ([7]; rate 63 g ai/ha): 40
Pre-emerge Herbicidal Activity CASOB ([7]; rate 250 g ai/ha): 60
Pre-emerge Herbicidal Activity ABUTH ([8]; rate 63 g ai/ha): 100
Pre-emerge Herbicidal Activity ABUTH ([8]; rate 250 g ai/ha): 100
Pre-emerge Herbicidal Activity CORN ([9]; rate 63 g ai/ha): 90
Pre-emerge Herbicidal Activity CORN ([9]; rate 250 g ai/ha): 100
Pre-emerge Herbicidal Activity RICE ([10]; rate 63 g ai/ha): 90
Pre-emerge Herbicidal Activity RICE ([10]; rate 250 g ai/ha): 100
Post-emerge Herbicidal Activity ECHCG ([11]; 63 g ai/ha): 20
Post-emerge Herbicidal Activity ECHCG ([11]; 250 g ai/ha): 90
Post-emerge Herbicidal Activity SETVI ([12]; 63 g ai/ha): 90
Post-emerge Herbicidal Activity SETVI ([12]; 250 g ai/ha): 100
Post-emerge Herbicidal Activity IPOHE ([13]; 63 g ai/ha): 100
Post-emerge Herbicidal Activity IPOHE ([13]; 250 g ai/ha): 100
Post-emerge Herbicidal Activity SORHA ([14]; 63 g ai/ha): 30
Post-emerge Herbicidal Activity SORHA ([14]; 250 g ai/ha): 90
Post-emerge Herbicidal Activity CHEAL ([15]; 63 g ai/ha): 100
Post-emerge Herbicidal Activity CHEAL ([15]; 250 g ai/ha): 100
Post-emerge Herbicidal Activity DIGSA ([16]; 63 g ai/ha): 60
Post-emerge Herbicidal Activity DIGSA ([16]; 250 g ai/ha): 90
Post-emerge Herbicidal Activity AMARE ([17]; 63 g ai/ha): 80
Post-emerge Herbicidal Activity AMARE ([17]; 250 g ai/ha): 100
Post-emerge Herbicidal Activity CASOB ([18]; 63 g ai/ha): 60
Post-emerge Herbicidal Activity CASOB ([18]; 250 g ai/ha): 90
Post-emerge Herbicidal Activity ABUTH ([19]; 63 g ai/ha): 100
Post-emerge Herbicidal Activity ABUTH ([19]; 250 g ai/ha): 100
Post-emerge Herbicidal Activity CORN ([20]; 63 g ai/ha): 60
Post-emerge Herbicidal Activity CORN ([20]; 250 g ai/ha): 100
Post-emerge Herbicidal Activity RICE ([21]; 63 g ai/ha): 60
Post-emerge Herbicidal Activity RICE ([21]; 250 g ai/ha): 90
